Laboratory results reported in patent US9820951B2, “Pulmonary disease treatment and diagnosis based on Arhgef1” (NATIONAL JEWISH HEALTH, A NON-PROFIT ORGANIZATION, priority 2011, dated 2017).
Entries after “also recorded” stand apart in the source; their conditions may differ.

Tests used:
Mmp9 [1] = assay: MMP9 activity by gelatin zymography in conditioned media of mouse peritoneal macrophages cultured on fibronectin; format: cell-based; details: for maximal inhibition of fibronectin-induced MMP9 production/activity: both wild type and Arhgef1-deficient macrophages, aspirin up to 20 mM, L-161,982, PTA2 1.56 or 6.25 μM, L-655,240 28 μM
Protocol: FIG. 5. TP-induced MMP9 production is only partially dependent on COX activity. A) PEMs were cultured on fibronectin for 24 hours with 5% FCS, washed then treated with different concentration of aspirin or 1.6 μM PTXA2 at for an additional 24 hours without FCS. MMP9 activity was determined by zymography from supernatants of wild type (open) or Arhgef1−/− (filled) macrophages. Activity was normalized to activity generated from cells cultured on fibronectin without treatment. B) MMP9 activity in conditioned media from peripheral blood monocytes cultured as described in panel A. Data represents mean±SE (n=3 independent donors).
FIG. 6. The antioxidant mimetic MnTE-2PyP reduces MMP9 activity in macrophages. PEMs were cultured on fibronectin for 24 hours with 5% FCS, washed then treated with MnTE-2PyP at the indicated concentrations for an additional 24 hours without FCS. MMP9 activity was determined by zymography from supernatants of wild type (open) or Arhgef1−/− (filled) macrophages. Activity was normalized to activity generated from cells cultured on fibronectin without treatment.
FIG. 11. Cyclooxygenase activity but not EP4 receptor signaling is required for MMP9 production by murine macrophages cultured on fibronectin. A, representative MMP9 gelatin zymograms of conditioned media from peritoneal macrophages cultured on either plastic (ctl) or FN and treated with increasing concentrations of aspirin (1.25, 5.0, and 20 mM, respectively). Wild type (+/+) and Arhgef1^−/− (−/−) samples from separate zymograms are shown. Molecular weight standards and respective enzymatic activities of MMP9 and MMP2 are shown. B, quantitation of MMP9 activity as determined by densitometric analysis of zymograms in A. MMP 9 activity is shown in arbitrary units and represents n=6 for both wild type (open bars) and Arhgef1^−/− (black bars) samples. The results are compiled from two independent experiments. The data represent the means±S.E. *, p<0.05 Student's two-tailed t test compared with conditioned media from cells cultured on plastic. #, p<0.05 Student's two-tailed test comparing conditioned media from wild type cells to Arhgef1^−/− cells cultured under identical conditions. $, p<0.05 Student's two-tailed t test compared with conditioned media from cells cultured on fibronectin. C, quantitation of MMP9 activity in conditioned media from macrophages cultured on fibronectin in the presence of the EP4 antagonist L161,982 (10 μM). MMP9 activity was normalized to fibronectin response for each genotype. The results are compiled from two independent experiments with wild type (open bars, n=5) and Arhgef1^−/− (black bars, n=5) samples. The data represent the means±S.E. *, p<0.05 Student's two-tailed t test compared with conditioned media from cells cultured on plastic. #, p<0.05 Student's two-tailed t test compared with conditioned media from cells cultured on fibronectin.
FIG. 12. Thromboxane receptor signaling is necessary for fibronectin-induced MMP9 production by macrophages and is attenuated by Arhgef1. A, representative gelatin zymograms of conditioned media from macrophages cultured on plastic (ctl) or FN and treated with 1.56 or 6.25 μM of the thromboxane receptor antagonist PTA2. Wild type (+/+) and Arhgef1^−/− (−/−) samples from separate zymograms are shown. B, quantitation of MMP9 activity as determined by densitometric analysis of zymograms in A. The results are representative of two independent experiments. C, representative zymograms from conditioned media from macrophages cultured on plastic or fibronectin and treated with 28 μM of the thromboxane receptor antagonist L-655,240. D, quantitation of MMP9 activity as determined by densitometric analysis of zymograms in C. The results are compiled from two independent experiments with n=4 for both wild type (open bars) and Arhgef1^−/− (black bars) samples. […]

MMP2 = MMP2 activity by gelatin zymography in conditioned media of mouse peritoneal macrophages cultured on fibronectin; format: cell-based; details: wild type and Arhgef1−/− macrophages; 20 mM aspirin or 28 μM L-655,240
Protocol: FIG. 12. Thromboxane receptor signaling is necessary for fibronectin-induced MMP9 production by macrophages and is attenuated by Arhgef1. A, representative gelatin zymograms of conditioned media from macrophages cultured on plastic (ctl) or FN and treated with 1.56 or 6.25 μM of the thromboxane receptor antagonist PTA2. Wild type (+/+) and Arhgef1^−/− (−/−) samples from separate zymograms are shown. B, quantitation of MMP9 activity as determined by densitometric analysis of zymograms in A. The results are representative of two independent experiments. C, representative zymograms from conditioned media from macrophages cultured on plastic or fibronectin and treated with 28 μM of the thromboxane receptor antagonist L-655,240. D, quantitation of MMP9 activity as determined by densitometric analysis of zymograms in C. The results are compiled from two independent experiments with n=4 for both wild type (open bars) and Arhgef1^−/− (black bars) samples. […] E, MMP2 activity was quantitated in conditioned media as previously described for MMP9. […] The data represent the means±S.E. F, MMP9 activity was quantitated as previously described and normalized to a percentage of fibronectin response for each genotype. […] G, relative Mmp9 expression was measured by qPCR in macrophages cultured on fibronectin in the presence of the thromboxane receptor agonist (U-46619, 10 nM), S1P (40 nM), or LPA (10 μM). […]

MMP9 [2] = assay: MMP9 activity by gelatin zymography, peripheral blood monocytes from COPD patients on fibronectin; format: cell-based, human; details: monocytes from 3 COPD patients; dose response 0.4 μM to 260 μM
Protocol: FIG. 17. Seratrodast (AA-2414) treatment on peripheral blood monocytes from 3 COPD patients. Generated dose response curve going firm 0.4 μM to 260 μM. Measured response by gelatin zymography of conditioned media. A is a representative zymogram from a single individual COPD patient. B depicts results compiled from three COPD patients. *, p<0.05 for ctl vs FN; #, p<0.05 FN vs FN+seratrodast.
For other human studies, we quantitated MMP9 by ELISA in conditioned medium (ELISA TECH, Aurora, Colo.).
Novex (Invitrogen) zymogram 10% gelatin gels were used for zymography as indicated per the manufacturer's instructions on conditioned media. Protease activity was detected as a loss of gelatin at the molecular weight of the indicated MMP and quantified by densitometric analysis using ImageJ (National Institutes of Health) software.
As another example, the thromboxane receptor antagonist seratrodast (AA-2414) was used on peripheral blood monocytes from 3 COPD patients and data collected as shown in FIG. 17.

Mmp9 [3] = assay: Mmp9 expression by qPCR in mouse peritoneal macrophages cultured on fibronectin; format: cell-based
Protocol: (§1) FIG. 4. TP signaling is required for MMP9 production in vitro and in vivo. A) Macrophage Mmp9 expression after culture on fibronectin for 24 hrs in media/vehicle (−), 40 nM S1P, 10 μM LPA, 10 nM U-46619 (TP agonist) or 6 μM PTXA2 (TP antagonist). Data represent normalized mean±SE. B) Arhgef1−/− mice (n=16) were exposed to aerosolized PBS (n=16), 220 μM PTXA2 (n=6) or 190 μM U-46619 (n=10) for 20 minutes and BAL harvested 1 day later and MMP activity measured.
FIG. 12. Thromboxane receptor signaling is necessary for fibronectin-induced MMP9 production by macrophages and is attenuated by Arhgef1. A, representative gelatin zymograms of conditioned media from macrophages cultured on plastic (ctl) or FN and treated with 1.56 or 6.25 μM of the thromboxane receptor antagonist PTA2. Wild type (+/+) and Arhgef1^−/− (−/−) samples from separate zymograms are shown. B, quantitation of MMP9 activity as determined by densitometric analysis of zymograms in A. The results are representative of two independent experiments. C, representative zymograms from conditioned media from macrophages cultured on plastic or fibronectin and treated with 28 μM of the thromboxane receptor antagonist L-655,240. D, quantitation of MMP9 activity as determined by densitometric analysis of zymograms in C. The results are compiled from two independent experiments with n=4 for both wild type (open bars) and Arhgef1^−/− (black bars) samples. The data represent the means±S.E. *, p<0.05 Student's two-tailed t test compared with conditioned media from cells cultured on plastic. #, p<0.05 Student's two-tailed t test comparing conditioned media from wild type cells to Arhgef1^−/− cells cultured under identical conditions. $, p<0.05 Student's two-tailed t test compared with conditioned media from cells cultured on fibronectin. E, MMP2 activity was quantitated in conditioned media as previously described for MMP9. The results are compiled from four independent experiments with n=10 for wild type (open bars) and Arhgef1^−/− (black bars) samples cultured on either plastic or fibronectin. For cells treated with 20 mM aspirin, n=6 for wild type (open bars) and Arhgef1^−/− (black bars) samples. For cells treated with 28 μM L-655,240, n=4 for wild type (open bars) and Arhgef1^−/− (black bars) samples. The data represent the means±S.E. F, MMP9 activity was quantitated as previously described and normalized to a percentage of fibronectin response for each genotype. The cells were either untreated or treated with 0.5% Me2SO or 28 μM L-655,240. The results are compiled from two independent experiments with n=3 for all conditions and genotypes. The data represent the means±S.E. *, p<0.05 Student's two-tailed t test compared with conditioned media from cells cultured on fibronectin. G, relative Mmp9 expression was measured by qPCR in macrophages cultured on fibronectin in the presence of the thromboxane receptor agonist (U-46619, 10 nM), S1P (40 nM), or LPA (10 μM). […] Wild type (open bars, n=12, 6, 3, and 3 for fibronectin, +U-46619, +S1P, and +LPA, respectively) and Arhgef1^−/− (black bars, n=14, 6, 3, and 2, respectively) from at least two independent experiments. The data represent the means±S.E. *, p<0.05 Student's two-tailed t test compared with conditioned media from cells cultured on fibronectin, #, p<0.05 Student's two-tailed t test comparing conditioned media from wild type cells to Arhgef1^−/− cells cultured under identical conditions. […]

Mmp9 [4] = assay: MMP9 activity in BAL of Arhgef1−/− mice after aerosol exposure; format: in vivo, mouse; details: inhalation of aerosol 20 min (220 μM PTXA2, 190 μM U-46619), BAL 24 hours later
Protocol: as §1

[5] = wild type and Arhgef1-deficient macrophages on fibronectin, 40 nM S1P, 10 μM LPA, 6 μM PTXA2, 24 h

Question: How did the “maximal inhibition of fibronectin-induced MMP9 production/activity” value (Mmp9 [1]) turn out when CCCCc1nn(-c2ccccc2C(F)(F)F)c(=O)n1Cc1ccc(-c2ccccc2S(=O)(=O)NC(=O)c2sccc2C)cc1 [L-161,982] was run?
Answer: Its value is −40%.

Question: With Cc1c(CC(C)(C)C(=O)O)n(Cc2ccc(Cl)cc2)c2ccc(F)cc12 [L-655,240, 1-[(4-Chlorophenyl)methyl]-5-fluoro-α,α,3-trimethyl-1H-indole-2-propanoic acid] as the compound, how does the “maximal inhibition of fibronectin-induced MMP9 production/activity” value (Mmp9 [1]) read?
Answer: Its value is −90%.

Question: And the “fibronectin-mediated MMP9 activity (effect in words)” value (Mmp9 [1]; mouse macrophages, wild type and Arhgef1−/−, 1.6 μM PTXA2, 28 μM L-655,240)?
Answer: The value was “significantly reduced MMP9 activity”.

Question: What about the MMP2 activity (MMP2) of the same compound?
Answer: The MMP2 activity was “not affected”.

Question: CC1=C(C)C(=O)C(C(CCCCCC(=O)O)c2ccccc2)=C(C)C1=O (stereo not shown) [seratrodast, 7-phenyl-7-(2,4,5-trimethyl-3,6-dioxocyclohexa-1,4-dien-1-yl)heptanoic acid] was tested. Which “MMP9 activity versus dose” value (MMP9 [2]) did it give?
Answer: The value was “inverse relationship between MMP9 activity and seratrodast dose”.

Question: With lysophosphatidic acid [LPA] as the compound, how does the Mmp9 expression (Mmp9 [3]; [5]) read?
Answer: Its Mmp9 expression is “slight decrease in Mmp9 expression; also recorded: modestly depress Mmp9 expression”.

Question: With CCCCCCCCCCCCC/C=C/[C@@H](O)[C@@H](N)COP(=O)(O)O [S1P, sphingosine-1-phosphate] as the compound, how does the Mmp9 expression (Mmp9 [3]; [5]) read?
Answer: Its Mmp9 expression is “slight decrease in Mmp9 expression; also recorded: modestly depress Mmp9 expression”.

Question: For CCCCC[C@H](O)/C=C/[C@@H]1[C@@H](C/C=C\CCCC(=O)O)[C@H]2CO[C@@H]1C2 [U-46619], which “MMP9 activity in BAL” value (Mmp9 [4]) is on record?
Answer: Its value is “dramatically increased MMP9 activity”.

Question: And the Mmp9 expression (Mmp9 [3]; Arhgef1-deficient macrophages on fibronectin, 10 nM U-46619)?
Answer: Its Mmp9 expression is “expressed significantly more Mmp9; also recorded: considerably increased Mmp9 expression”.

Question: And the Mmp9 expression (Mmp9 [3]; wild type macrophages on fibronectin, 10 nM U-46619)?
Answer: Its Mmp9 expression is “did not affect wild type cells”.
